Test results as given in PubChem BioAssay AID296 (DTP/NCI, 2004).
Values joined by “and” are separate entries in the source; they are usually repeats but may differ in a detail not shown here. Equal entries are not always repeated. Records with an inconclusive call do not appear.

Test system: MX-1 breast xenograft, nude mice, tumor weight T/C
Test: NCI In Vivo Anticancer Drug Screen. Data for tumor model Human Mammary Carcinoma MX-1 Xenograft (intrarenal inoculation) in NU/NU Swiss (nude) mice
Conditions: endpoint: mean tumor weight change, higher = larger tumour
Summary of the method: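 Tumor-bearing mice were treated with test compound alongside a vehicle-treated control group. Survival or tumor size was measured, and activity is expressed as the treated-group value divided by the control-group value.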

[1] = dose: 300.0 mg/kg/injection, schedule: Q04DX003 (sc), vehicle: saline with Tween-80
[2] = dose: 600.0 mg/kg/injection, schedule: Q04DX003 (sc), vehicle: saline with Tween-80
[3] = dose: 1200.0 mg/kg/injection, schedule: Q04DX003 (sc), vehicle: saline with Tween-80
[4] = dose: 2400.0 mg/kg/injection, schedule: Q04DX003 (sc), vehicle: saline with Tween-80
[5] = dose: 37.5 mg/kg/injection, schedule: Q04DX003 (sc), vehicle: saline with Tween-80
[6] = dose: 300.0 mg/kg/injection, schedule: Q04DX003 (sc), vehicle: saline
[7] = dose: 150.0 mg/kg/injection, schedule: Q04DX003 (sc), vehicle: saline with Tween-80
[8] = dose: 150.0 mg/kg/injection, schedule: Q04DX003 (sc), vehicle: saline

With `CCCCNCCCNCCCNC(=O)c1csc(-c2csc(CCNC(=O)C(NC(=O)C(C)C(O)C(C)NC(=O)C(NC(=O)c3nc(C(CC(N)=O)NCC(N)C(N)=O)nc(N)c3C)C(OC3OC(CO)C(O)C(O)C3OC3OC(CO)C(O)C(OC(N)=O)C3O)c3cnc[nH]3)C(C)O)n2)n1` (stereo not given) the T/C (dose: 8.0 mg/kg/injection, schedule: Q01DX010 (sc), vehicle: saline) was 104 % of control, the T/C (dose: 16.0 mg/kg/injection, schedule: Q01DX010 (sc), vehicle: saline) was 73 % of control and the T/C (dose: 32.0 mg/kg/injection, schedule: Q01DX010 (sc), vehicle: saline) was 39 % of control.

For `O=C1C(NCC(O)CO)=C(N2CC2)C(=O)C(NCC(O)CO)=C1N1CC1` (stereo not given), the T/C (dose: 4.0 mg/kg/injection, schedule: Q04DX003 (ip), vehicle: saline) was 76 % of control, the T/C (dose: 8.0 mg/kg/injection, schedule: Q04DX003 (ip), vehicle: saline) was 69 % of control and the T/C (dose: 16.0 mg/kg/injection, schedule: Q04DX003 (ip), vehicle: saline) was 46 % of control.

For `CCCCCCOC(CN(C)C)C(Cl)(Cl)Cl` (stereo not given), the T/C [1] was 70 % of control, the T/C [2] was 69 % of control and the T/C [3] was 71 % of control. The T/C [4] was 58 % of control.

`CC1CN=C(c2ccc(NC(=O)c3ccc(C(=O)Nc4ccc(C5=NCC(C)N5)cc4)cc3)cc2)N1` (stereo not given) was tested, and the T/C (dose: 100.0 mg/kg/injection, schedule: Q01DX010 (sc), vehicle: Klucel (hydroxypropylcellulose) (HPC)) was 96 % of control, the T/C (dose: 200.0 mg/kg/injection, schedule: Q01DX010 (sc), vehicle: Klucel (hydroxypropylcellulose) (HPC)) was 107 % of control and the T/C (dose: 400.0 mg/kg/injection, schedule: Q01DX010 (sc), vehicle: Klucel (hydroxypropylcellulose) (HPC)) was 110 % of control. For the same compound, the T/C (dose: 800.0 mg/kg/injection, schedule: Q01DX010 (sc), vehicle: Klucel (hydroxypropylcellulose) (HPC)) was 77 % of control.

`CCCCCCCCCCCCCCCC(=O)OCC1OC(n2ccc(N)nc2=O)C(O)C1O` (stereo not given) was tested, and the T/C [5] was 30 % of control and the T/C [2] was 11 % of control.

For `COc1cc2cc(c1Cl)N(C)C(=O)CC(OC(=O)C(C)C)C1(C)OC1C(C)C1CC(O)(NC(=O)O1)C(OC)/C=C/C=C(C)C2` (stereo not given), the T/C (dose: 1.56 micrograms/kg/injection, schedule: Q01DX010 (sc), vehicle: saline + alcohol) was 40 % of control, the T/C (dose: 3.12 micrograms/kg/injection, schedule: Q01DX010 (sc), vehicle: saline + alcohol) was 67 % of control and the T/C (dose: 6.25 micrograms/kg/injection, schedule: Q01DX010 (sc), vehicle: saline + alcohol) was 53 % of control. The T/C (dose: 12.5 micrograms/kg/injection, schedule: Q01DX010 (sc), vehicle: saline + alcohol) was 67 % of control.

With `CN(C)N=Nc1ccccc1` the T/C (dose: 100.0 mg/kg/injection, schedule: Q04DX003 (sc), vehicle: Klucel (hydroxypropylcellulose) (HPC)) was 36 % of control.

In the case of `OCCOCC(F)(F)F`, the T/C [6] is reported as 82 % of control, the T/C (dose: 1200.0 mg/kg/injection, schedule: Q04DX003 (sc), vehicle: saline) is reported as 86 % of control and the T/C (dose: 2400.0 mg/kg/injection, schedule: Q04DX003 (sc), vehicle: saline) is reported as 49 % of control.

In the case of `CC(C)CC(NC(=O)CF)C(=O)O` (stereo not given), the T/C (dose: 10.0 mg/kg/injection, schedule: Q04DX003 (sc), vehicle: saline) is reported as 92 % of control and the T/C (dose: 20.0 mg/kg/injection, schedule: Q04DX003 (sc), vehicle: saline) is reported as 89 % of control.

`COc1cc(Cl)ccc1C` was tested, and the T/C [1] was 108 % of control, the T/C [2] was 88 % of control and the T/C [3] was 95 % of control. For the same compound, the T/C [4] was 76 % of control.

`Nc1nc2c(C(=O)N3CCCC3)nnn2c2ccccc12` was tested, and the T/C [5] was 35 % of control, the T/C (dose: 75.0 mg/kg/injection, schedule: Q04DX003 (sc), vehicle: saline with Tween-80) was 74 % of control and the T/C [7] was 49 % of control.

With `N[C@@H](Cc1c[nH]c2ccccc12)C(=O)Nc1nncs1` the T/C (dose: 300.0 mg/kg/injection, schedule: Q04DX003 (ip), vehicle: suspension in saline) was 69 % of control and the T/C (dose: 600.0 mg/kg/injection, schedule: Q04DX003 (ip), vehicle: suspension in saline) was 50 % of control.

`C[C@]12C=CC(=O)C=C1CC[C@@H]1[C@@H]2C(=O)C[C@@]2(C)[C@H]1CC[C@]2(O)C(=O)CO` was tested, and the T/C (dose: 300.0 mg/kg/injection, schedule: Q04DX003 (sc), vehicle: Klucel (hydroxypropylcellulose) (HPC)) was 40 % of control, the T/C (dose: 600.0 mg/kg/injection, schedule: Q04DX003 (sc), vehicle: Klucel (hydroxypropylcellulose) (HPC)) was 73 % of control and the T/C (dose: 1200.0 mg/kg/injection, schedule: Q04DX003 (sc), vehicle: Klucel (hydroxypropylcellulose) (HPC)) was 44 % of control. The T/C (dose: 2400.0 mg/kg/injection, schedule: Q04DX003 (sc), vehicle: Klucel (hydroxypropylcellulose) (HPC)) was 29 % of control.

With `c1ccc2c(c1)[As]=c1ccccc1=[As]2` (stereo not given) the T/C [8] was 116 % of control, the T/C [6] was 118 % of control and the T/C (dose: 600.0 mg/kg/injection, schedule: Q04DX003 (sc), vehicle: saline) was 99 % of control.

In the case of `C[CH2][Ge]1([CH2]C)[CH2]CC2(CCN(CCCN(C)C)C2)C[CH2]1`, the T/C (dose: 12.5 mg/kg/injection, schedule: Q04DX003 (sc), vehicle: saline) is reported as 72 % of control, the T/C (dose: 25.0 mg/kg/injection, schedule: Q04DX003 (sc), vehicle: saline) is reported as 92 % of control and the T/C (dose: 50.0 mg/kg/injection, schedule: Q04DX003 (sc), vehicle: saline) is reported as 72 % of control. The T/C (dose: 100.0 mg/kg/injection, schedule: Q04DX003 (sc), vehicle: saline) was 85 % of control.

In the case of `c1ccc2c(NCCCCCCNc3c4ccccc4nc4ccccc34)c3ccccc3nc2c1`, the T/C (dose: 10.0 mg/kg/injection, schedule: Q01DX010 (sc), vehicle: Klucel (hydroxypropylcellulose) (HPC)) is reported as 87 % of control, the T/C (dose: 10.0 mg/kg/injection, schedule: Q04DX003 (sc), vehicle: Klucel (hydroxypropylcellulose) (HPC)) is reported as 297 % of control and the T/C (dose: 20.0 mg/kg/injection, schedule: Q01DX010 (sc), vehicle: Klucel (hydroxypropylcellulose) (HPC)) is reported as 58 % of control. The T/C (dose: 20.0 mg/kg/injection, schedule: Q04DX003 (sc), vehicle: Klucel (hydroxypropylcellulose) (HPC)) was 241 % of control, the T/C (dose: 40.0 mg/kg/injection, schedule: Q04DX003 (sc), vehicle: Klucel (hydroxypropylcellulose) (HPC)) was 322 % of control and the T/C (dose: 80.0 mg/kg/injection, schedule: Q04DX003 (sc), vehicle: Klucel (hydroxypropylcellulose) (HPC)) was 199 % of control.

In the case of `O=S(=O)(O)O.[NH-]C1CCCCC1[NH-].[Pt+2]` (stereo not given), the T/C (dose: 0.63 mg/kg/injection, schedule: Q01DX010 (sc), vehicle: dextrose) is reported as 95 % of control and 111 % of control and 115 % of control and the T/C (dose: 2.5 mg/kg/injection, schedule: Q01DX010 (sc), vehicle: dextrose) is reported as 10 % of control and 12 % of control.

For `CC[C@H]1CN2CCc3cc(OC)c(OC)cc3[C@@H]2C[C@@H]1C[C@H]1NCCc2cc(OC)c(OC)cc21`, the T/C (dose: 2.0 mg/kg/injection, schedule: Q01DX010 (sc), vehicle: saline) was 114 % of control and the T/C (dose: 4.0 mg/kg/injection, schedule: Q01DX010 (sc), vehicle: saline) was 108 % of control.

In the case of `C1=CCOCOC1`, the T/C [7] is reported as 71 % of control and the T/C [1] is reported as 70 % of control.

In the case of `O=CC(=O)c1ccc(O)cc1`, the T/C [8] is reported as 95 % of control and the T/C [6] is reported as 69 % of control.

`O=C(O)CC(=O)O.[NH-]C1CCCCC1[NH-].[Pt+2]` (stereo not given) was tested, and the T/C (dose: 20.0 mg/kg/injection, schedule: Q01DX010 (sc), vehicle: dextrose) was 1 % of control and -16 % of control and the T/C (dose: 40.0 mg/kg/injection, schedule: Q01DX010 (sc), vehicle: dextrose) was -81 % of control and -78 % of control.

With `Nc1ccc2c(c1)CN1C(=O)c3ccccc3C1=N2` the T/C [1] was 203 % of control, the T/C [2] was 168 % of control and the T/C [3] was 76 % of control.

`C[C@@H](CN1CC(=O)NC(=O)C1)N1CC(=O)NC(=O)C1` was tested, and the T/C (dose: 100.0 mg/kg/injection, schedule: Q01DX010 (sc), vehicle: saline with Tween-80) was 63 % of control, the T/C (dose: 200.0 mg/kg/injection, schedule: Q01DX010 (sc), vehicle: saline with Tween-80) was 81 % of control and the T/C (dose: 400.0 mg/kg/injection, schedule: Q01DX010 (sc), vehicle: saline with Tween-80) was 39 % of control.

With `Nc1nc(-c2ccccc2)c(Br)c(=O)[nH]1` the T/C [1] was 96 % of control, the T/C [2] was 93 % of control and the T/C [3] was 109 % of control. For the same compound, the T/C [4] was 65 % of control.

With `CCOC(=O)C(C)(C)Oc1ccc(Cl)cc1` the T/C [1] was 95 % of control, the T/C [2] was 90 % of control and the T/C [3] was 71 % of control.
